The values that follow come from patent US7435744B2, “Piperidine derivatives as NMDA receptor antagonists” (Gedeon Richter Vegyeszeti Gyar RT, priority 2001, dated 2008).

In one experiment the target is T1, NR2B subunit (Rattus norvegicus, UniProt P35439+Q00960).
T1 construct: from tissue; host or cells: forebrain membranes of male Wistar rats
In words: [3H]-Ro 25,6981 binding assay on rat cerebral membranes. As for the experimental part: Determining Binding of Compounds to NR2B Subunit by [^3H]-Ro 25,6981 Binding Assay
Briefly, membranes are isolated from the forebrain of male Wistar rats. They are incubated in the presence and absence of test compound for 2 hours at room temperature. […] The applied radioligand (^3H-Ro-25,6981) concentration is 4 nM.
(§1) wherein for NMDA IC50—IC50 is determined by the intracellular Ca^2+-concentartion assay on cortical neurons; and for Ro-binding IC50—IC50 is determined by the [^3H]-Ro 25,6981 binding assay on rat cerebral membranes.

The target of experiment [1] is T2, NMDA receptors (NR2B subunit containing) (Rattus norvegicus, UniProt P35439+Q00960).
T2 construct: endogenous in cells; host or cells: primary neocortical neurons from 17 day old Charles River rat embryos, 4-7 days in vitro
T2 sequence (Q00960 27-1482, other chains not shown): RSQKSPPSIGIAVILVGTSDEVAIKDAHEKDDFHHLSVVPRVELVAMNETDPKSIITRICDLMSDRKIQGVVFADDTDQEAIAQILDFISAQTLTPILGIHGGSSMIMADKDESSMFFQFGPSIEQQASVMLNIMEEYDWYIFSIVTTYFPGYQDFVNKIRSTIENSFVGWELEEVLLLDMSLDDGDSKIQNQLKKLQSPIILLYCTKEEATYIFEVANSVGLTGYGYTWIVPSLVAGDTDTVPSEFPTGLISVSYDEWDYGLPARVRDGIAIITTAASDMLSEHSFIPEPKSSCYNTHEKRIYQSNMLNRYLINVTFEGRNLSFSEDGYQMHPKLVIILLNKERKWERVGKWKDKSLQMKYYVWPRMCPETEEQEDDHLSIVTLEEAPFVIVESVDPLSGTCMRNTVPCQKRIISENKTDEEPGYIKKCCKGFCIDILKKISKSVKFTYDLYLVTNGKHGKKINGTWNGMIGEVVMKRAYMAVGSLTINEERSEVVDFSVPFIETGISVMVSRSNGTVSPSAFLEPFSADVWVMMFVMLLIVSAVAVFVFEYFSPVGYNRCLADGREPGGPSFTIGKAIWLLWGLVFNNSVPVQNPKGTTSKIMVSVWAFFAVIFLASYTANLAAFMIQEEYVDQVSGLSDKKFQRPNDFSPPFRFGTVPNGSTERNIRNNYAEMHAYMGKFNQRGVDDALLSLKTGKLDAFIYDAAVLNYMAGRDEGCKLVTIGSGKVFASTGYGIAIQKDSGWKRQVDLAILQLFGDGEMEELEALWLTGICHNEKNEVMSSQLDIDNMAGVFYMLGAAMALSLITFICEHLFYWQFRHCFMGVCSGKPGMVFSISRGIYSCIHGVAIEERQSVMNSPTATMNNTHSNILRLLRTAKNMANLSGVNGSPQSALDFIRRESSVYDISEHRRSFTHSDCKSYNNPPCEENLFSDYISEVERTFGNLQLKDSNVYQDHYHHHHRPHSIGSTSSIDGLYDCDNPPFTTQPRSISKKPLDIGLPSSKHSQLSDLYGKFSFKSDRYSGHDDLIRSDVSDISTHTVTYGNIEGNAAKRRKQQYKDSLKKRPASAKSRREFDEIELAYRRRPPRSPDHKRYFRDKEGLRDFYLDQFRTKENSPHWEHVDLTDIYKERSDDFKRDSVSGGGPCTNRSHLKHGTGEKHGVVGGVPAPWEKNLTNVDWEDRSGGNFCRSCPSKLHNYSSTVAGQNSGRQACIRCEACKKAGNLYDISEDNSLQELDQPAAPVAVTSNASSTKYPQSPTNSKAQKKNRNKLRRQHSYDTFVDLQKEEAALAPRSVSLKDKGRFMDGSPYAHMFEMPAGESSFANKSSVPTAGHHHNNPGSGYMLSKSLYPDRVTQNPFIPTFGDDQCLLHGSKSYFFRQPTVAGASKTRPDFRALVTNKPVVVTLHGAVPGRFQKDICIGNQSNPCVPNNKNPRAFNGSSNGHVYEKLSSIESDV
The experiment in a line: Functional NMDA antagonist potency: intracellular calcium measurement in primary cultures of rat cortical neurons (fluorimeter plate reader). It is filed as cell-based.
Description: Assessing the Functional NMDA Antagonist Potency of Compounds in Primary Cultures of Rat Cortical Neurons Based on Measuring the Intracellular Calcium Concentration Using a Fluorimeter Plate Reader
It is known that during postnatal development the subunit composition of neuronal NMDA receptors is changing. […] According to data in the literature and to our own immunocytochemical examinations neuronal cells cultured for 4-7 days in vitro predominantly express the NR2B subunit, together with NR1 subunit. Therefore, functional test of NMDA antagonism in these cells reflects mainly an action on NR2B subunit containing receptors. Since NMDA receptors are known to be permeable to calcium ions upon excitation, the extent of NMDA receptor activation, and its inhibition by functional antagonists can be characterised by measuring the rise in the intracellular calcium concentration following agonist (NMDA) application onto the cells. Since there is very high sequence homology between rat and human NMDA receptors (99, 95, 97% for NR1, NR2A, and NR2B subunits, respectively), it is believed that there is little, if any, difference in their pharmacological sensitivity.
In: Protocols for Neural Cell Culture, eds: Fedoroff, S.; Richardson A., The Humana Press Inc., 13-38.] After isolation, the cells are plated onto standard 96-well microplates and the cultures are maintained in an atmosphere of 95% air-5% CO2 at 37° C. until testing.
The cultures are used for the intracellular calcium measurements after 4-7 days in vitro. […] Loading is stopped by washing twice with the solution used also during the measurement (140 mM NaCl, 5 mM KCl, 2 mM CaCl2, 5 mM HEPES [4-(2-hydroxyethyl)-1-piperazineethane-sulfonic acid], 5 mM HEPES-Na, 20 mM glucose, 10 μM glycine, pH=7.4). Then the test compound dissolved in the above solution (90 μl/well) is added. Intracellular calcium measurements are carried out with a plate reader fluorimeter. A rise is induced by application of 40 μM NMDA in Fluo-4-fluorescence that reflects the intracellular calcium concentration. Inhibitory potency of the test compound is assessed by measuring the reduction in the calcium elevation in the presence of different concentrations of the compound. After the measurement, a standard calibration procedure [Meth. Cell.
Inhibitory potency of a compound at a single concentration point is expressed as percent inhibition of the control NMDA response. Sigmoidal concentration-inhibition curves are fitted over the data and IC50 values are defined as the concentration that produces half of the maximal inhibition that could be achieved with the compound. Mean IC50 values are derived from at least three independent experiments.
as §1

The subject of the next experiment is NMRI mice. In words: Mouse formalin test (second phase) for in vivo efficacy. To be noted: po, p.o. 15 min before formalin, licking time 20 to 25 min after formalin, >20 = inhibition less than 50% at 20 mg/kg p.o. How it is done: Mouse Formalin Test for Measurement of In Vivo Efficacy
Injection of diluted formalin into the hind paw of rats or mouse is known to elicit a biphasic pain related behaviour measured as time spent by licking/biting of the injured paw. The second phase is generally defined as pain related events detected in the 15-60 min. time interval after formalin injection. It is known that NMDA receptors are involved in the second phase of response to formalin injection and this behavioural response is sensitive to blockade of NMDA receptors [Dickenson, A. and Besson J.-M. (Eds.): Chapter 1, pp. 6-7: Animal models of Analgesia; and Chapter 8, pp. 180-183: Mechanism of Central Hypersensitivity: Excitatory Amino Acid Mechanisms and Their Control—In Pharmacology of Pain. Springer-Verlag (Berlin) 1997.] Therefore, we performed the second phase of formalin test to characterise the efficacy of compounds in vivo. Inhibition of the second phase of response is considered to indicate an analgesic effect against chemically-induced persistent pain [Hunskaar, S., et al.: Formalin Test in Mice, a Useful Technique for Evaluating Mild Analgesics, Journal of Neuroscience Methods, 14 (1985) 69-76.] Male albino Charles River NMRI mice (20-25 g) were used. Prior to the experiment any solid food was withdrawn for 16 hours but the animals had free access to 20% glucose solution. The animals were allowed a 1 hour acclimatisation period spent in a glass cylinder (cc. 15 cm in diameter), then moved to an identical cylinder with a mirror placed behind to facilitate observation. The test substances were suspended in 5% tween-80 (10 ml per kg body weight). and administered orally by gavage 15 min before the formalin injection (20 μl of 1% formalin in 0.9% saline injected subcutaneously into the dorsal surface of the right hindpaw). The time spent by licking and biting of the injected paw was measured from 20 to 25 min. after the formalin injection.

[2] abbreviates: rat forebrain membranes, 4 nM [3H]-Ro 25,6981, 2 hours at room temperature, read-out: Ro-binding IC50.
[3] abbreviates: rat cortical neurons 4-7 days in vitro, 40 μM NMDA, Fluo-4 intracellular Ca2+, read-out: NMDA IC50.

One may read the IC50 as the concentration at which inhibition is half-maximal. By ED50 is commonly meant the midpoint of the dose-response relation. A low value points to greater potency.

Read-outs that look alike come from different tables or passages of the source.

T1 sequence (Q00960 27-1482, other chains not shown): as above

Consider `O=C(CNc1ccc2[nH]c(=O)[nH]c2c1)N1CCC(Cc2ccc(F)cc2)CC1` [Example 197, 5-{2-[4-(4-Fluoro-benzyl)-piperidin-1-yl]-2-oxo-ethylamino}-1,3-dihydro-benzoimidazol-2-one], for which the figures for the IC50 (on NR2B subunit (setting [2]); in experiment [1] (setting [3])) were 91 nM and 48 nM, respectively.
Compound `O=C(Nc1ccc2[nH]c(=O)oc2c1)C(=O)N1CCC(Cc2ccc(F)cc2)CC1` [Example 3, 2-[4-(4-Fluoro-benzyl)-piperidin-1-yl]-2-oxo-N-(2-oxo-2,3-dihydro-benzoxazol-6-yl)-acetamide] gave an ED50 in the experiment on NMRI mice of 6.9 mg/kg. Also, the IC50 was determined as 18 nM at NR2B subunit (setting [2]) and 3.2 nM in experiment [1] (setting [3]).
As for `O=C(CNc1ccc2[nH]ncc2c1)N1CCC(Cc2ccc(F)cc2)CC1` [Example 199, 1-[4-(4-Fluoro-benzyl)-piperidin-1-yl]-2-(1H-indazol-5-yl-amino)-ethanone], the IC50 came out at 972 nM at NR2B subunit (setting [2]) and 533 nM in experiment [1] (setting [3]).
Compound `O=c1[nH]c2ccc([S+]([O-])CCN3CCC(Cc4ccc(F)cc4)CC3)cc2o1` (centres unmarked) [CI-1041, 6-{2-[4-(4-fluoro-benzyl)-piperidin-1-yl]-ethanesulfinyl}-3H-benzooxazol-2-one, reference compound] showed an ED50 with NMRI mice of 5.3 mg/kg. Also, the IC50 at NR2B subunit came out at 4 nM; in experiment [1], 6.6 nM.
`O=C(Nc1ccc2oc(=O)[nH]c2c1)C(=O)N1CCC(Cc2ccc(F)cc2)CC1` [Example 4, 2-[4-(4-Fluoro-benzyl)-piperidin-1-yl]-2-oxo-N-(2-oxo-2,3-dihydro-benzoxazol-5-yl)-acetamide]: the IC50 at NR2B subunit (setting [2]) was > 30000 nM; in experiment [1] (setting [3]), 4710 nM.
`O=C(Nc1ccc2[nH]c(=O)oc2c1)C(=O)N1CCC(Oc2ccc(Cl)cc2)CC1` [Example 31, 2-[4-(4-Chloro-phenoxy)-piperidin-1-yl]-2-oxo-N-(2-oxo-2,3-dihydro-benzoxazol-6-yl)-acetamide] came in with an ED50 with NMRI mice of 4.4 mg/kg.
On the same count and under the same terms, next, `O=C(CN1CCC(Cc2ccccc2)CC1)Nc1ccc(O)cc1` [Example 192, 2-(4-Benzyl-piperidin-1-yl)-N-(4-hydroxy-phenyl)-acetamide]: 17 mg/kg; `CC(C(=O)Nc1ccc2[nH]c(=O)oc2c1)N1CCC(Cc2ccccc2)CC1` (centres unmarked) [Example 161, 2-(4-Benzyl-piperidin-1-yl)-N-(2-oxo-2,3-dihydro-1H-benzoxazol-6-yl)-propionamide]: 2.4 mg/kg.
On the same count and under the same terms, next, `Cc1ccc(CC2CCN(C(=O)C(=O)Nc3ccc4c(c3)CC(=O)N4)CC2)cc1` [Example 101, 2-[4-[4-Methyl-benzyl)-piperidin-1-yl]-2-oxo-N-(2-oxo-2,3-dihydro-1H-indol-5-yl)-acetamide]: 0.48 mg/kg.
Take `O=C1COc2cc(NC(=O)C(=O)N3CCC(Cc4ccccc4)CC3)ccc2N1` [Example 24, 2-(4-Benzyl-piperidin-1-yl)-2-oxo-N-(3-oxo-3,4-dihydro-2H-benzo [1,4]oxazin-7-yl)-acetamide]: the results for the IC50 (on NR2B subunit (setting [2]); in experiment [1] (setting [3])) were 214 nM and 113 nM, respectively.
As for `C[C@@H]([C@@H](O)c1ccc(O)cc1)N1CCC(O)(c2ccccc2)CC1` [CP 101,606, (1S,2S)-1-(4-hydroxyphenyl)-2-(4-hydroxy-4-phenylpiperidine-1-yl)-1-propanol, reference compound], the ED50 in the experiment on NMRI mice is > 20 mg/kg.
On the same count and under the same terms, the result for `O=C1Cc2cc(NC(=O)C(=O)N3CCC(Cc4ccc(F)cc4)CC3)ccc2N1` [Example 1, 2-[4-(4-Fluoro-benzyl)-piperidin-1-yl]-2-oxo-N-(2-oxo-2,3-dihydro-1H-indol-5-yl)-acetamide] reads 0.46 mg/kg.
As to `O=C(Nc1ccc2[nH]c(=O)[nH]c2c1)C(=O)N1CCC(Cc2ccc(F)cc2)CC1` [Example 2, 2-[4-(4-Fluoro-benzyl)-piperidin-1-yl]-2-oxo-N-(2-oxo-2,3-dihydro-1H-benzimidazol-5-yl)-acetamide], the figures for the IC50 (on NR2B subunit (setting [2]); in experiment [1] (setting [3])) were 4.7 nM and 0.7 nM, respectively.
As for `Cc1ccc(CC2(O)CCN(CCOc3ccc(O)cc3)CC2)cc1` [Co-101244, 1-[2-(4-hydroxyphenoxy)ethyl]-4-hydroxy-4-(4-methylbenzyl)piperidine, reference compound], the ED50 in the experiment on NMRI mice was > 20 mg/kg. Besides, the IC50 was 3.3 nM on NR2B subunit (setting [2]) and 23 nM in experiment [1] (setting [3]).
As to `O=C(CN1CCC(Cc2ccccc2)CC1)Nc1ccc2c(c1)CC(=O)N2` [Example 143, 2-(4-Benzyl-piperidin-1-yl)-N-(2-oxo-2,3-dihydro-1H-indol-5-yl)-acetamide], the IC50 at NR2B subunit (setting [2]) was 29 nM; in experiment [1] (setting [3]), 164 nM.
For `CS(=O)(=O)Nc1cccc(NC(=O)C(=O)N2CCC(Cc3ccccc3)CC2)c1` [Example 12, 2-(4-Benzyl-piperidin-1-yl)-N-(3-methanesulfonylamino-phenyl)-2-oxo-acetamide], in that order: 614 nM and 1010 nM.
Turning to `Oc1ccc(OCCN2CCC(Cc3ccc(F)cc3)CC2)cc1` [Co-111103, 1-[2-(4-hydroxyphenoxy)ethyl]-4-(4-fluorobenzyl)piperidine, reference compound], in the experiment with NMRI mice, the ED50 is > 20 mg/kg. The IC50 on NR2B subunit (setting [2]) turned out to be 8.4 nM.
In the case of `O=C(Nc1ccc2[nH]c(=O)oc2c1)C(=O)N1CCC(Cc2ccccc2)CC1` [Example 8, 2-(4-Benzyl-piperidin-1-yl)-2-oxo-N-(2-oxo-2,3-dihydro-benzoxazol-6-yl)-acetamide], the IC50 amounted to 5.5 nM on NR2B subunit (setting [2]) and 2.4 nM in experiment [1] (setting [3]).
For the compound `O=C(CN1CCC(Cc2ccccc2)CC1)Nc1ccc2[nH]c(=O)oc2c1` [Example 146, 2-(4-Benzyl-piperidin-1-yl)-N-(2-oxo-2,3-dihydro-benzoxazol-6-yl)-acetamide], the IC50 at NR2B subunit (setting [2]) turned out to be 1.7 nM; in experiment [1] (setting [3]) it was 6 nM.
For `O=C(CN1CCC(Cc2ccccc2)CC1)Nc1ccc2[nH]ncc2c1` [Example 147, 2-(4-Benzyl-piperidin-1-yl)-N-(1H-indazol-5-yl)-acetamide], in that order: 121 nM and 1330 nM.
For `O=C(Nc1ccc2[nH]c(=O)[nH]c2c1)C(=O)N1CCC(Cc2ccccc2)CC1` [Example 7, 2-(4-Benzyl-piperidin-1-yl)-2-oxo-N-(2-oxo-2,3-dihydro-1H-benzimidazol-5-yl)-acetamide], in that order: 4.4 nM and 1.4 nM.
For `C[C@@H](CN1CCC(Cc2ccccc2)CC1)[C@@H](O)c1ccc(O)cc1` [Ro 25.6981, R—(R*,S*)-1-(4-hydroxyphenyl)-2-methyl-3-[4-(phenylmethyl)piperidin-1-yl]-1-propanol, reference compound], in the experiment on NMRI mice, the ED50 was > 20 mg/kg. The compound further showed an IC50 at NR2B subunit of 5.9 nM.
